The text below walks through data of ChEMBL document CHEMBL5154646, “Structure-guided optimization of 1H-imidazole-2-carboxylic acid derivatives affording potent VIM-Type metallo-β-lactamase inhibitors” (Eur J Med Chem, 2022).

The source made the active and inactive calls. The rule behind the calls is not given here.

A short description of series [1]: Inhibition of bacterial VIM-2 (27 to 266 residues) expressed in Escherichia coli Transetta (DE3) using FC-5 as substrate preincubated with enzyme for 10 mins followed by substrate addition by fluorescence based analysis. More on the design: species or system Bacteria.
The subject of series [2] is Escherichia coli. As to the kind of experiment: Potentiation of meropenem-induced antibacterial activity against Escherichia coli C1542 expressing VIM-2 assessed as meropenem MIC at 10 ug/ml incubated for 18 to 20 hrs by CLSI based broth microtiter dilution method (reference value: 16 ug/ml). It counts as functional. The note with it: dose 10 µg/ml, time 18-20 hrs.
Series [3] relates to Escherichia coli. As to the kind of experiment: Synergistic antibacterial activity against Escherichia coli C1541 expressing VIM-2 assessed as fractional inhibitory concentration index incubated for 18 to 20 hrs in presence of meropenem by checkerboard microdilution assay. It counts as functional. The settings on record: time 18-20 hrs. A general note: Broth dilution looks for growth in wells or tubes with falling amounts of substance.

Series [4] can be described thus: Inhibition of bacterial VIM-2 (27 to 266 residues) expressed in Escherichia coli Transetta (DE3) using FC-5 as substrate preincubated with enzyme for 10 mins followed by substrate addition in presence of 1 uM Zn2+ by fluorescence based analysis. On the set-up: species or system Bacteria.
For series [5], the system named is Pseudomonas aeruginosa. As to the kind of experiment: Induction of morphological changes in Pseudomonas aeruginosa W35 expressing VIM-2 assessed as elongated morphology with localized swelling at 10 ug/ml incubated for 1 hr in presence of meropenem by confocal microscopic analysis. The note with it: dose 10.0 µg/ml. It is filed as functional, organism-based.
The test system of series [6] is Pseudomonas aeruginosa. The series is described as follows: Induction of morphological changes in Pseudomonas aeruginosa W35 expressing VIM-2 at 10 ug/ml incubated for 1 hr by transmission electron microscopy. It is filed as functional, organism-based. The note with it: dose 10.0 µg/ml.
For series [7], the system named is Pseudomonas aeruginosa. The series is described as follows: Induction of morphological changes in Pseudomonas aeruginosa W35 expressing VIM-2 assessed as localized swelling, elongation with increased cell permeability at 10 ug/ml incubated for 1 hr in presence of meropenem by transmission electron microscopy. It counts as functional, organism-based. The settings on record: dose 10.0 µg/ml.

Series [8] in a line: Toxicity in ip dosed ICR mouse assessed as maximum tolerated dose administered for 14 days. It counts as organism-based. The settings on record: in vivo, time 14 day.
A short description of series [9]: Solubility of the compound in water. It counts as physicochemical.
The nature of series [10]: Cmax in Sprague-Dawley rat at 100 mg/kg, ip by UPLC analysis. It is filed as ADME, organism-based. On the set-up: dose 100 mg/kg, route ip. The note with it: in vivo.
Series [11] can be described thus: Toxicity in ICR mouse assessed as effect on histological architecture of lungs at 500 to 2000 mg/kg, ip administered for 14 days by hematoxylin and eosin staining based histopathological assay. It counts as organism-based. The settings on record: in vivo, 336 h, dose 500-2000 mg/kg, time 14 day.
A short description of series [12]: Toxicity in ICR mouse assessed as effect on histological architecture of kidney at 500 to 2000 mg/kg, ip administered for 14 days by hematoxylin and eosin staining based histopathological assay. It is filed as organism-based. The settings on record: in vivo, 336 h, dose 500-2000 mg/kg, time 14 day.
For series [13], the system named is Pseudomonas aeruginosa. As to the kind of experiment: Potentiation of meropenem-induced antibacterial activity against Pseudomonas aeruginosa 5621 expressing VIM-2 assessed as fold reduction in meropenem MIC at 100 ug/ml incubated for 18 to 20 hrs by CLSI based broth microtiter dilution method. It counts as functional. The settings on record: dose 100 µg/ml; time 18-20 hrs.

Series [14] deals with Pseudomonas aeruginosa. As to the kind of experiment: Potentiation of meropenem-induced antibacterial activity against Pseudomonas aeruginosa W35 expressing VIM-2 assessed as fold reduction in meropenem MIC at 100 ug/ml incubated for 18 to 20 hrs by CLSI based broth microtiter dilution method. It is filed as functional. The settings on record: dose 100 µg/ml; time 18-20 hrs.

One may read the IC50 as the midpoint of a concentration-inhibition curve. A word on the MIC: it is the lowest concentration found to suppress growth. The term MTD denotes the largest dose that counted as tolerated. As usually defined, the solubility is how much of the substance goes into solution per volume. As a reminder, the Cmax is the highest concentration seen after dosing. Take `O=C(O)c1nccn1Cc1ccncc1`: the IC50 in series [1] worked out at 0.56 µM; in series [4] it was 0.22 µM. Also, in [2], the MIC was less than 0.25 mg/L. Also, in series [3], the “fractional inhibitory concentration index (FICI)” value was found to be 0.05. Besides, the outcome in [5], in series [6] and in series [7] was Active. For the same compound, the MTD at 336 h in [8] was no more than 2000 mg/kg. In series [9], this compound displayed a solubility greater than 20 mg/mL. Further, in series [10], the Cmax stood at 143 µg/mL. Also, the Activity entry in series [11] and in series [12] was “Non-Toxic” in each case. In addition, the “fold change (FC)” value worked out at 2 in series [13] and 16 in series [14].
